Consider 12 molecules from US12630547B2, “RAS protein degraders, pharmaceutical compositions thereof, and their therapeutic applications” (BioTheryX, Inc., priority 2019, dated 2026).

Holding throughout (format): cell-based
One assay deals with H358 cells. The experiment in a line: Cell viability assay (CELLTITER-GLO), H358 cells. The settings on record: Table 4; 3 days. On the procedure: (§1) MOLM-13 cells, MV-4-11 cells, H23, and H358 cells were independently cultured in RPMI 1640 media supplemented with 10% fetal bovine serum, streptomycin and penicillin. The cells were plated in white walled 96-well plates at 4,000 cells/well. The cells were incubated in DMSO (control) or a compound for 3 days at 37° C. under 5% CO2. A CELLTITER-GLO® reagent (100 μL) was then added to each well. After a 10 min incubation with shaking, luminescence was measured using an ENVISION® multimode plate reader.
In Tables 1 and 2, each compound was tested at 10 μM; and in Table 3, each compound was tested at 1 μM. In Tables 1 to 3, the cell viability values as % DMSO are reported as “A,” “B,” “C,” or “D;” where “A” represents a % viability value of less than 10%; “B” represents a % viability value of no less than 10% and less than 25%; “C” represents a % viability value of no less than 25% and less than 50%; and “D” represents a % viability value of no less than 50%. Compound A is
(§2) IC50 values are summarized in Table 4, where “A” represents an IC50 value of no greater than 1 μM, “B” represents an IC50 value of greater than 1 μM and no greater than 5 μM, “C” represents an IC50 value of greater than 5 μM and no greater than 10 μM, and “D” represents an IC50 value of greater than 10 μM.

The subject of the next assay is H23 cells. The experiment in a line: Cell viability assay (CELLTITER-GLO), H23 cells. The settings on record: Table 4; 3 days. On the procedure: as §1, §2
For orientation: ATP-based viability assays read luminescence as a measure of living cells.

Another assay concerns MOLM-13 cells. The experiment in a line: Cell viability assay (CELLTITER-GLO), MOLM-13 cells. The settings on record: Homo sapiens, MOLM-13, 72 h; Table 2; compound at 10 μM, 3 days; read-out: Effect on MOLM-13 cell viability (% DMSO). The method, boiled down:
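MV-4-11 and MOLM-13 cells in RPMI 1640/10% FBS were seeded at 4,000 cells/well and exposed to compound (10 μM or 1 μM) or DMSO for 3 days at 37 °C, 5% CO2. CellTiter-Glo luminescence gave viability as % DMSO, binned into ranges A (<10%) through D (≥50%).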

With `C=CC(=O)N1CCN(c2ncnc3c(F)c(-c4c(F)cccc4OCCCCCCCNCc4ccc(OCc5scc6c5CN([C@H]5CCC(=O)NC5=O)C6=O)cc4)c(Cl)cc23)CC1` [Compound 24, (3S)-3-(1-((4-(((7-(2-(4-(4-Acryloylpiperazin-1-yl)-6-chloro-8-fluoroquinazolin-7-yl)-3-fluorophenoxy)heptyl)amino)methyl)phenoxy)methyl)-4-oxo-4H-thieno[3,4-c]pyrrol-5(6H)-yl)piperidine-2,6-dione], the “Inhibition of H358 cells, IC50 (class)” value in the assay on H358 cells was “B′”. For the same molecule, the “Inhibition of H23 cells, IC50 (class)” value in the assay on H23 cells is given as “B′”. Moreover, the viability at 10 µM with MOLM-13 cells was less than 10%.

For `C=CC(=O)N1CCN(c2ncnc3c(F)c(-c4cc(OCCOCCOCCC(=O)NCCNc5cccc6c5CN(C5CCC(=O)NC5=O)C6=O)ccc4F)c(Cl)cc23)CC1` (stereo not drawn) [Compound 38, 3-(2-(2-(3-(4-(4-Acryloylpiperazin-1-yl)-6-chloro-8-fluoroquinazolin-7-yl)-4-fluorophenoxy)ethoxy)ethoxy)-N-(2-((2-(2,6-dioxopiperidin-3-yl)-1-oxoisoindolin-4-yl)amino)ethyl)propanamide], the “Inhibition of H358 cells, IC50 (class)” value in the assay on H358 cells was “D′”. The “Inhibition of H23 cells, IC50 (class)” value with H23 cells is on record as “D′”. In the assay on MOLM-13 cells, the viability at 10 µM is not below 50%.

In the case of `C=CC(=O)N1CC(N2Cc3ccc(-c4cc(O)cc5ccccc45)cc3N(CCOCCOCCOCCNc3ccc4c(c3)C(=O)N(C3CCC(=O)NC3=O)C4=O)C2=O)C1` (stereo not drawn) [Compound 40, 5-((2-(2-(2-(2-(3-(1-Acryloylazetidin-3-yl)-7-(3-hydroxynaphthalen-1-yl)-2-oxo-3,4-dihydroquinazolin-1(2H)-yl)ethoxy)ethoxy)ethoxy)ethyl)amino)-2-(2,6-dioxopiperidin-3-yl)isoindoline-1,3-dione], the “Inhibition of H358 cells, IC50 (class)” value in the assay with H358 cells is reported as “B′”. Moreover, in the assay with H23 cells, the “Inhibition of H23 cells, IC50 (class)” value is recorded as “B′”. In addition, the viability at 10 µM with MOLM-13 cells is less than 10%.

On to `O=C1CCC(N2Cc3c(cc(F)cc3C3CCN(CCCCCCCOc4cccc(F)c4-c4c(Cl)cc5c(N6CCN(C(=O)c7cnc[nH]7)CC6)ncnc5c4F)CC3)C2=O)C(=O)N1` (stereo not drawn) [Compound 41, 3-(4-(1-(7-(2-(4-(4-(1H-Imidazole-5-carbonyl)piperazin-1-yl)-6-chloro-8-fluoroquinazolin-7-yl)-3-fluorophenoxy)heptyl)piperidin-4-yl)-6-fluoro-1-oxoisoindolin-2-yl)piperidine-2,6-dione], for which the “Inhibition of H358 cells, IC50 (class)” value in the assay on H358 cells is “B′”. The “Inhibition of H23 cells, IC50 (class)” value in the assay on H23 cells is listed as “B′”. Further, the viability at 10 µM in the assay with MOLM-13 cells was less than 10%.

Consider `CCC(=O)N1CCN(c2ncnc3c(F)c(-c4c(F)cccc4OCCOCCOCCOCCNc4cccc5c4C(=O)N(C4CCC(=O)NC4=O)C5=O)c(Cl)cc23)CC1` (stereo not drawn) [Compound 42, 4-((2-(2-(2-(2-(2-(6-Chloro-8-fluoro-4-(4-propionylpiperazin-1-yl)quinazolin-7-yl)-3-fluorophenoxy)ethoxy)ethoxy)ethoxy)ethyl)amino)-2-(2,6-dioxopiperidin-3-yl)isoindoline-1,3-dione], for which, in the assay with H358 cells, the “Inhibition of H358 cells, IC50 (class)” value was “D′”. Besides, the “Inhibition of H23 cells, IC50 (class)” value in the assay on H23 cells was “D′”. The viability at 10 µM in the assay with MOLM-13 cells was not below 50%.

Take `C=C(Cl)C(=O)N1CCN(c2ncnc3c(F)c(-c4c(F)cccc4OCCCCCCCN4CCC(c5cc(F)cc6c5CN(C5CCC(=O)NC5=O)C6=O)CC4)c(Cl)cc23)CC1` (stereo not drawn) [Compound 43, 3-(4-(1-(7-(2-(6-Chloro-4-(4-(2-chloroacryloyl)piperazin-1-yl)-8-fluoroquinazolin-7-yl)-3-fluorophenoxy)heptyl)piperidin-4-yl)-6-fluoro-1-oxoisoindolin-2-yl)piperidine-2,6-dione]: the “Inhibition of H358 cells, IC50 (class)” value in the assay with H358 cells was “A′”. Besides, the “Inhibition of H23 cells, IC50 (class)” value in the assay on H23 cells is recorded as “A′”. In addition, the viability at 10 µM in the assay with MOLM-13 cells is less than 10%.

For the molecule `CCC(=O)N1CC(N2Cc3ccc(-c4cc(O)cc5ccccc45)cc3N(CCCCCCCN3CCC(c4cc(F)cc5c4CN(C4CCC(=O)NC4=O)C5=O)CC3)C2=O)C1` (stereo not drawn) [Compound 44, 3-(6-Fluoro-4-(1-(7-(7-(3-hydroxynaphthalen-1-yl)-2-oxo-3-(1-propionylazetidin-3-yl)-3,4-dihydroquinazolin-1(2H)-yl)heptyl)piperidin-4-yl)-1-oxoisoindolin-2-yl)piperidine-2,6-dione], the “Inhibition of H358 cells, IC50 (class)” value in the assay on H358 cells was “C′”. Besides, in the assay with H23 cells, the “Inhibition of H23 cells, IC50 (class)” value is “B′”. Moreover, the viability at 10 µM in the assay with MOLM-13 cells was less than 10%.

For the molecule `C=CC(=O)N1CC(N2Cc3ccc(-c4cc(O)cc5ccccc45)cc3N(CCOCCOCCNc3cccc4c3C(=O)N(C3CCC(=O)NC3=O)C4=O)C2=O)C1` (stereo not drawn) [Compound 45, 4-((2-(2-(2-(3-(1-Acryloylazetidin-3-yl)-7-(3-hydroxynaphthalen-1-yl)-2-oxo-3,4-dihydroquinazolin-1(2H)-yl)ethoxy)ethoxy)ethyl)amino)-2-(2,6-dioxopiperidin-3-yl)isoindoline-1,3-dione], in the assay with H358 cells, the “Inhibition of H358 cells, IC50 (class)” value is “C′”. Further, the “Inhibition of H23 cells, IC50 (class)” value in the assay on H23 cells is on record as “B′”. Moreover, in the assay with MOLM-13 cells, the viability at 10 µM is not below 50%.

For the molecule `CCC(=O)N1CC(N2Cc3ccc(-c4cc(O)cc5ccccc45)cc3N(CCNCCCCCCCN3CCC(c4cc(F)cc5c4CN(C4CCC(=O)NC4=O)C5=O)CC3)C2=O)C1` (stereo not drawn) [Compound 46, 3-(6-Fluoro-4-(1-(7-((2-(7-(3-hydroxynaphthalen-1-yl)-2-oxo-3-(1-propionylazetidin-3-yl)-3,4-dihydroquinazolin-1(2H)-yl)ethyl)amino)heptyl)piperidin-4-yl)-1-oxoisoindolin-2-yl)piperidine-2,6-dione], the “Inhibition of H358 cells, IC50 (class)” value in the assay with H358 cells is listed as “D′”. Further, the “Inhibition of H23 cells, IC50 (class)” value in the assay with H23 cells is reported as “D′”. Also, the viability at 10 µM in the assay with MOLM-13 cells was not below 50%.

`C=CC(=O)N1C[C@H](C)N(c2nc(OCCOCCOCCOCCNc3cccc4c3C(=O)N(C3CCC(=O)NC3=O)C4=O)nc3c(F)c(-c4c(O)cccc4F)c(Cl)cc23)C[C@H]1C` (stereo partly drawn) [Compound 58, 4-((2-(2-(2-(2-((4-((2S,5R)-4-Acryloyl-2,5-dimethylpiperazin-1-yl)-6-chloro-8-fluoro-7-(2-fluoro-6-hydroxyphenyl)quinazolin-2-yl)oxy)ethoxy)ethoxy)ethoxy)ethyl)amino)-2-(2,6-dioxopiperidin-3-yl)isoindoline-1,3-dione]: the “Inhibition of H358 cells, IC50 (class)” value with H358 cells is listed as “B′”. In the assay with H23 cells, the “Inhibition of H23 cells, IC50 (class)” value is “B′”. In addition, the viability at 10 µM in the assay on MOLM-13 cells was less than 10%.

On to `CCS(=O)(=O)N1CCN(c2ncnc3c(F)c(-c4c(F)cccc4OCCCCCCCN4CCC(c5cc(F)cc6c5CN(C5CCC(=O)NC5=O)C6=O)CC4)c(Cl)cc23)CC1` (stereo not drawn) [Compound 59, 3-(4-(1-(7-(2-(6-Chloro-4-(4-(ethylsulfonyl)piperazin-1-yl)-8-fluoroquinazolin-7-yl)-3-fluorophenoxy)heptyl)piperidin-4-yl)-6-fluoro-1-oxoisoindolin-2-yl)piperidine-2,6-dione], for which the “Inhibition of H358 cells, IC50 (class)” value in the assay on H358 cells was “B′”. Further, in the assay on H23 cells, the “Inhibition of H23 cells, IC50 (class)” value was “B′”. Besides, the viability at 10 µM in the assay on MOLM-13 cells was less than 10%.

Regarding `CCC(=O)N1CCN(c2ncnc3c(F)c(-c4c(F)cccc4OCCCCCCCCCN4CCC(c5cc(F)cc6c5CN(C5CCC(=O)NC5=O)C6=O)CC4)c(Cl)cc23)CC1` (stereo not drawn) [Compound 61, 3-(4-(1-(9-(2-(6-Chloro-8-fluoro-4-(4-propionylpiperazin-1-yl)quinazolin-7-yl)-3-fluorophenoxy)nonyl)piperidin-4-yl)-6-fluoro-1-oxoisoindolin-2-yl)piperidine-2,6-dione], the “Inhibition of H358 cells, IC50 (class)” value in the assay with H358 cells is “B′”. Moreover, the “Inhibition of H23 cells, IC50 (class)” value in the assay with H23 cells is on record as “B′”. The viability at 10 µM in the assay on MOLM-13 cells was less than 10%.

A word on the viability: it is a read-out of living cells in per cent, often relative to untreated cells.
